The conditions of data set [1]: 293.15 K; 101.33 kPa; Liquid.
Data set [2] in a line: refractive index (Na D-line) (dimensionless). The settings on record: 293.15 K; 101.33 kPa; Liquid; Standard Abbe refractometry.

± gives the expanded uncertainty stated by the source.

In the case of `CCOCCO` [2-ethoxyethan-1-ol], the mass density in data set [1] was 929 ± 1 kg/m3. In addition, in data set [2], the refractive index is reported as 1.4065 ± 0.0007.

As for `CC(C)=O` [acetone], in data set [1], the mass density was 790 ± 1 kg/m3. The refractive index in data set [2] came to 1.359 ± 0.0007.

For the molecule `CCO` [ethanol], the mass density in data set [1] came to 789 ± 1 kg/m3. Besides, the refractive index in data set [2] is on record as 1.3619 ± 0.0007.

Regarding `CO` [methanol], in data set [1], the mass density stood at 791 ± 1 kg/m3. Also, the refractive index in data set [2] came out at 1.3287 ± 0.0007.

Broadly, the mass density is the mass of a sample divided by its volume. By refractive index is commonly meant the speed of light in vacuum divided by its phase velocity in the sample.

The record behind these values is the NIST ThermoML archive (doi:10.1021/je700404u).
